{"source": "patent US11077159B2", "about": "“Compositions from halophyte plants and methods of use thereof” (KHALIFA UNIVERSITY OF SCIENCE AND TECHNOLOGY, priority 2017, dated 2021)", "key": {"[1]": {"tested_on": "matrix metalloproteinase-1 (MMP-1) release", "test": "MMP-1 release by aged fibroblasts (ELISA), anti-aging", "format": "cell-based, human", "settings": "10^−7M", "excerpt": "[…] The matrix metalloproteinase-1 (MMP-1) assay using a specific ELISA kit was used to evaluate anti-aging properties. The migration/proliferation of NHEK using kinetic image analysis of the wound recovery was used to evaluate cell renewal properties. The IL-8 release on NHEK stimulated by PMA using a specific ELISA kit was used to evaluate anti-inflammatory properties."}, "[2]": {"test": "DPPH free radical scavenging (antioxidant) assay", "format": "biochemical", "settings": "positive control, 0.3 mg/mL; ± standard error", "experimental": "Two controls were used in the DPPH assay; a negative control containing all reagents except for the test extract, and a positive control using a final concentration of 0.33 mg/mL L-ascorbic acid as antioxidant instead of test extract. Radical scavenging activity was calculated as follows: Scavenging activity (%)=[(Acontrol−Atest)/[…]]*100 Where Acontrol is the negative control (without test extract), and Atest is the absorbance with the botanical extract. All analysis were carried out in triplicate."}, "[3]": {"tested_on": "Hyaluronic acid", "test": "Hyaluronic acid synthesis", "format": "cell-based", "settings": "10^−7M"}, "[4]": {"tested_on": "IL-8 release of NHEK", "test": "IL-8 release of NHEK stimulated by PMA (ELISA), anti-inflammatory", "format": "cell-based, human", "settings": "10^−9M", "excerpt": "The matrix metalloproteinase-1 (MMP-1) assay using a specific ELISA kit was used to evaluate anti-aging properties. The migration/proliferation of NHEK using kinetic image analysis of the wound recovery was used to evaluate cell renewal properties. The IL-8 release on NHEK stimulated by PMA using a specific ELISA kit was used to evaluate anti-inflammatory properties."}, "[5]": {"test": "Scavenging of reactive oxygen species", "settings": "control reference, concentration not given"}}, "note": "Values joined by “and” are separate entries in the source; they are usually repeats but may differ in a detail not shown here. Identical values can stand only once."}
{"compound": "C[C@@H]1C[C@H]2[C@@H]3CCC4=CC(=O)C=C[C@]4(C)[C@@]3(F)[C@@H](O)C[C@]2(C)[C@@]1(O)C(=O)CO", "note": "[Dexamethasone]", "values": [{"measurement": "MMP-1 % Control (P17-F)", "setting": "[1]", "value": 58, "unit": "%"}, {"measurement": "inhibition at 0.1 µM", "setting": "[1]; Homo sapiens, Fibroblast", "value": 42, "unit": "%"}, {"measurement": "MMP-1 (ng/ml) dilution factor adjusted", "setting": "[1]; P17-F aged fibroblasts, single replicate", "value": "8.7 ng/mL and 8.2 ng/mL and 8.5 ng/mL"}, {"measurement": "MMP-1 Mean", "setting": "[1]; P17-F", "value": 8.5, "unit": "ng/mL"}]}
{"compound": "O=C1O[C@H]([C@@H](O)CO)C(O)=C1O", "note": "[L-ascorbic acid]", "values": [{"measurement": "DPPH scavenging activity", "setting": "[2]", "value": "95.79±0.17", "unit": "%"}]}
{"compound": "CC1=C(/C=C/C(C)=C/C=C/C(C)=C/C(=O)O)C(C)(C)CCC1", "note": "[Retinoic acid]", "values": [{"measurement": "Hyaluronic acid % Control", "setting": "[3]", "value": 241, "unit": "%"}, {"measurement": "Hyaluronic acid % Stimulation", "setting": "[3]", "value": 141, "unit": "%"}, {"measurement": "Hyaluronic acid Mean", "setting": "[3]", "value": 655.7, "unit": "ng/mL"}, {"measurement": "Hyaluronic acid (ng/ml) dilution factor adjusted", "setting": "[3]; single replicate", "value": "677.2 ng/mL and 632.1 ng/mL and 657.9 ng/mL"}]}
{"compound": "CN[C@@H]1C[C@H]2O[C@@](C)([C@@H]1OC)n1c3ccccc3c3c4c(c5c6ccccc6n2c5c31)C(=O)NC4", "note": "[Staurosporine]", "values": [{"measurement": "IL-8 % Stimulated control", "setting": "[4]", "value": 54, "unit": "%"}, {"measurement": "IL-8 Mean", "setting": "[4]; PMA 0.1 μg/ml", "value": 1685, "unit": "pg/mL"}, {"measurement": "IL-8 (pg/ml) dilution factor adjusted", "setting": "[4]; PMA 0.1 μg/ml, non-diluted sample, single replicate", "value": "1579 pg/mL and 1809 pg/mL and 1668 pg/mL"}]}
{"compound": "Vitamin-E", "values": [{"measurement": "ROS scavenged", "setting": "[5]", "value": 92, "unit": "%"}]}
